Test results reported in US20260375233A1, “COMPOSITION FOR IMPROVING SKIN WRINKLES” (LG H&H CO., LTD., priority 2022, published 2026).

Columns and labels:
Format in all cases: cell-based
[1] = tested on: Type IV collagen (COL4A1); assay: collagen mRNA synthesis promotion (qPCR), COL4A1 in human skin fibroblasts; conditions: 24 hours, mRNA by qPCR
Procedure: (§1) Human skin fibroblasts (NHDF-Neo-Human Dermal Fibroblasts, Neonatal, Lonza, CC-2509) were purchased from Lonza and then used. The purchased cells were cultured in an incubator (37 °C, 5% CO2) using media prepared by mixing Dulbecco Modified Eagle Medium (DMEM, Thermo Fisher Scientific) with 10% fetal bovine serum (FBS) and 1% antibiotics (penicillin streptomycin).
(§2) To analyze the efficacy of promoting collagen mRNA synthesis, human skin fibroblasts were dispensed on a 6-well plate at 1.5×10^5 cells/well and cultured in an incubator (37 °C, 5% CO2) for 24 hours. The substances were added to serum free media at an appropriate concentration/combination, and then the cells were again cultured for 24 hours under the same conditions. Thereafter, mRNA was obtained using an RNA-spin total RNA extraction kit (iNtRON Biotechnology, 17211), and cDNA was synthesized using a cDNA synthesis kit (PhileKorea Technology, ET21100). The expression level of each gene was analyzed by performing qPCR using the synthesized cDNA and taqman probes (assay ID: COL1A1-Hs00164004_m1, COL3A1-Hs00943809_m1, COL4A1-Hs00266237_m1, BNC2-Hs00417700_m1, EDAR-Hs00223468_m1).
as §2, with “COL1A1-Hs00164004_m1,” for “COL1A1-Hs00164004_m1, COL3A1-Hs00943809_m1,”, “sgpp2-Hs00544786_m1), ADIPOQ F primer (5′-[…]-3′), and ADIPOQ R primer (5′-[…]-3′).” for “BNC2-Hs00417700_m1, EDAR-Hs00223468_m1).”

[2] = tested on: SGPP2; assay: SGPP2 gene expression (qPCR) in human skin fibroblasts; conditions: 24 hours, FIG. 15
Procedure: as §1
as §2, with “COL1A1-Hs00164004_m1,” for “COL1A1-Hs00164004_m1, COL3A1-Hs00943809_m1,”, “sgpp2-Hs00544786_m1), ADIPOQ F primer (5′-[…]-3′), and ADIPOQ R primer (5′-[…]-3′).” for “BNC2-Hs00417700_m1, EDAR-Hs00223468_m1).”
For example, SGPP2 is a gene expressing an enzyme capable of dominantly acting in an inflammation status, and the overactivity of SGPP2 may be more vulnerable to inflammatory signals. […]

[3] = tested on: Type I collagen (COL1A1); assay: collagen mRNA synthesis promotion (qPCR), COL1A1 in human skin fibroblasts; conditions: 24 hours, mRNA by qPCR
Procedure: as §1, §2
as §2, with “COL1A1-Hs00164004_m1,” for “COL1A1-Hs00164004_m1, COL3A1-Hs00943809_m1,”, “sgpp2-Hs00544786_m1), ADIPOQ F primer (5′-[…]-3′), and ADIPOQ R primer (5′-[…]-3′).” for “BNC2-Hs00417700_m1, EDAR-Hs00223468_m1).”
as §2, with “PPARGC1B-Hs00993805_m1, SPATA5-Hs01047535_m1, EN1-Hs00154977_m1).” for “COL4A1-Hs00266237_m1, BNC2-Hs00417700_m1, EDAR-Hs00223468_m1).”

[4] = tested on: PPARGC1B; assay: PPARGC1B gene expression (qPCR) in human skin fibroblasts; conditions: 24 hours, Non-treated = 1.00
Procedure: as §1
as §2, with “PPARGC1B-Hs00993805_m1, SPATA5-Hs01047535_m1, EN1-Hs00154977_m1).” for “COL4A1-Hs00266237_m1, BNC2-Hs00417700_m1, EDAR-Hs00223468_m1).”
For example, PPARGC1B, one of co-activators of peroxisome proliferator activated receptor-γ (PPARγ), has been known to be associated with melanogenesis in the skin. PPARGC1B has been reported to be involved in the wrinkle formation by mitochondrial dysfunction and the wrinkle reduction by mitochondrial function recovery (Cell Death & Disease volume 9, Article number: 735 (2018)). Therefore, the increased expression level of PPARGC1B serves to restore the function of mitochondria, which are cell energy producing organelles, thereby preventing and recovering from nasolabial wrinkles, which are deeply indented wrinkles accumulated over a relatively long time. That is, it can be seen that the increase in expression level of PPARGC1B by the treatment with the substances of the present invention is effective in wrinkle improvement.

[5] = tested on: ADIPOQ; assay: ADIPOQ gene expression (qPCR) in human skin fibroblasts; conditions: 24 hours, FIG. 16
Procedure: as §1
as §2, with “COL1A1-Hs00164004_m1,” for “COL1A1-Hs00164004_m1, COL3A1-Hs00943809_m1,”, “sgpp2-Hs00544786_m1), ADIPOQ F primer (5′-[…]-3′), and ADIPOQ R primer (5′-[…]-3′).” for “BNC2-Hs00417700_m1, EDAR-Hs00223468_m1).”
As another example, ADIPOQ, a gene expressing adiponectin, is a substance primarily secreted in adipose tissue, and ADIPOQ in the skin is mainly known for anti-inflammatory effects thereof. […]

[6] = tested on: Type III collagen (COL3A1); assay: collagen mRNA synthesis promotion (qPCR), COL3A1 in human skin fibroblasts; conditions: 24 hours, mRNA by qPCR
Procedure: as §1
as §2, with “Thereafter, mRNA was obtained using an RNA-spin total RNA extraction kit (iNtRON Biotechnology, 17211), and cDNA was synthesized using a cDNA synthesis kit (PhileKorea Technology, ET21100).” left out
To analyze the efficacy of promoting collagen mRNA synthesis, human skin fibroblasts were dispensed on a 6-well plate at 1.5×10^5 cells/well and cultured in an incubator (37 °C, 5% CO2) for 24 hours. […] The expression level of each gene was analyzed by performing qPCR using the synthesized cDNA and taqman probes (assay ID: COL1A1-Hs00164004_m1, COL3A1-Hs00943809_m1, PPARGC1B-Hs00993805_m1, SPATA5-Hs01047535_m1, EN1-Hs00154977_m1).

[7] = tested on: EDAR; assay: EDAR gene expression (qPCR) in human skin fibroblasts; conditions: 24 hours, FIG. 7
Procedure: as §1
as §2, with “EDAR-Hs00223468_m1). […]” for “EDAR-Hs00223468_m1).”

[8] = tested on: BNC2; assay: BNC2 gene expression (qPCR) in human skin fibroblasts; conditions: 24 hours, FIG. 6
Procedure: as §1, §2
The degrees of fine wrinkle improvement by the substances of the present invention were investigated on the basis of the polymorphism markers showing correlations with the degree of skin fine wrinkles, obtained through Example 1. […]

[9] = tested on: SPATA5; assay: SPATA5 gene expression (qPCR) in human skin fibroblasts; conditions: 24 hours, Untreated = 1.00
Procedure: as §1
as §2, with “PPARGC1B-Hs00993805_m1, SPATA5-Hs01047535_m1, EN1-Hs00154977_m1).” for “COL4A1-Hs00266237_m1, BNC2-Hs00417700_m1, EDAR-Hs00223468_m1).”
Although the role of SPATA5 in the skin has not been studied, SPATA5 may play a role in mitochondrial function and ATP production. […]

| Molecule | expression of Type IV collagen (COL4A1) [1] | expression of Type I collagen (COL1A1) [3] | other results |
| --- | --- | --- | --- |
| COc1cc(/C=C/C(=O)NCCc2c[nH]c3ccc(O)cc23)ccc1O [N-feruloylserotonin] | promoted the expression | – | expression of SGPP2 [2]: inhibited the expression |
| CC12CCC(CC1=O)C2(C)C (centres unmarked) [camphor] | – | promoted the expression | Gene expression level (PPARGC1B) [4]: 2.63 |
| Cc1cc(O)c2c(c1)C(=O)c1cc(O)cc(O)c1C2=O [emodin] | promoted the expression | promoted the expression | expression of ADIPOQ [5]: increased the expression |
| COc1ccc(-c2coc3cc(O)ccc3c2=O)cc1 [formononetin] | promoted the expression | promoted the expression | expression of ADIPOQ [5]: increased the expression |
| C=C(C)[C@@H]1CC[C@]2(C)CC[C@@H]3[C@H](CC[C@H]4[C@@]3(C)CC[C@H]3C(C)(C)[C@@H](O)CC[C@]43C)[C@@H]12 [lupeol] | – | – | expression of Type III collagen (COL3A1) [6]: promoted the expression; expression of EDAR [7]: increased the expression |
| NC(=O)c1cccnc1 [niacinamide] | – | promoted the expression | Gene expression level (PPARGC1B) [4]: 1.52 |
| O=C(CCc1ccc(O)cc1)c1c(O)cc(O)cc1O [phloretin] | promoted the expression | promoted the expression | expression of Type III collagen (COL3A1) [6]: promoted the expression; expression of BNC2 [8]: inhibited the expression |
| Cc1ncc(CO)c(CO)c1O.Cl [pyridoxine HCl] | – | promoted the expression | Expression level of gene (SPATA5) [9]: 1.36 |
| O=C[C@@H](O)[C@@H](O)[C@H](O)[C@H](O)COP(=O)([O-])[O-].[Na+].[Na+] [sodium mannose phosphate, D-mannose-6-phosphate sodium salt] | – | promoted the expression | Gene expression level (PPARGC1B) [4]: 1.53 |
| NC[C@H]1CC[C@H](C(=O)O)CC1 [tranexamic acid, reference compound] | – | promoted the expression | Expression level of gene (SPATA5) [9]: 1.21 |
| fucoidan | promoted the expression | – | expression of SGPP2 [2]: inhibited the expression |
